Experimental data reported in publication PMC3249170 (Cellular and Molecular Life Sciences: CMLS, 2011).

Target: actomyosin-7a (acto•M7a) (Homo sapiens, UniProt Q13402)
Assay: biochemical

Sequence of actomyosin-7a (acto•M7a) (Q13402 whole entry, looked up): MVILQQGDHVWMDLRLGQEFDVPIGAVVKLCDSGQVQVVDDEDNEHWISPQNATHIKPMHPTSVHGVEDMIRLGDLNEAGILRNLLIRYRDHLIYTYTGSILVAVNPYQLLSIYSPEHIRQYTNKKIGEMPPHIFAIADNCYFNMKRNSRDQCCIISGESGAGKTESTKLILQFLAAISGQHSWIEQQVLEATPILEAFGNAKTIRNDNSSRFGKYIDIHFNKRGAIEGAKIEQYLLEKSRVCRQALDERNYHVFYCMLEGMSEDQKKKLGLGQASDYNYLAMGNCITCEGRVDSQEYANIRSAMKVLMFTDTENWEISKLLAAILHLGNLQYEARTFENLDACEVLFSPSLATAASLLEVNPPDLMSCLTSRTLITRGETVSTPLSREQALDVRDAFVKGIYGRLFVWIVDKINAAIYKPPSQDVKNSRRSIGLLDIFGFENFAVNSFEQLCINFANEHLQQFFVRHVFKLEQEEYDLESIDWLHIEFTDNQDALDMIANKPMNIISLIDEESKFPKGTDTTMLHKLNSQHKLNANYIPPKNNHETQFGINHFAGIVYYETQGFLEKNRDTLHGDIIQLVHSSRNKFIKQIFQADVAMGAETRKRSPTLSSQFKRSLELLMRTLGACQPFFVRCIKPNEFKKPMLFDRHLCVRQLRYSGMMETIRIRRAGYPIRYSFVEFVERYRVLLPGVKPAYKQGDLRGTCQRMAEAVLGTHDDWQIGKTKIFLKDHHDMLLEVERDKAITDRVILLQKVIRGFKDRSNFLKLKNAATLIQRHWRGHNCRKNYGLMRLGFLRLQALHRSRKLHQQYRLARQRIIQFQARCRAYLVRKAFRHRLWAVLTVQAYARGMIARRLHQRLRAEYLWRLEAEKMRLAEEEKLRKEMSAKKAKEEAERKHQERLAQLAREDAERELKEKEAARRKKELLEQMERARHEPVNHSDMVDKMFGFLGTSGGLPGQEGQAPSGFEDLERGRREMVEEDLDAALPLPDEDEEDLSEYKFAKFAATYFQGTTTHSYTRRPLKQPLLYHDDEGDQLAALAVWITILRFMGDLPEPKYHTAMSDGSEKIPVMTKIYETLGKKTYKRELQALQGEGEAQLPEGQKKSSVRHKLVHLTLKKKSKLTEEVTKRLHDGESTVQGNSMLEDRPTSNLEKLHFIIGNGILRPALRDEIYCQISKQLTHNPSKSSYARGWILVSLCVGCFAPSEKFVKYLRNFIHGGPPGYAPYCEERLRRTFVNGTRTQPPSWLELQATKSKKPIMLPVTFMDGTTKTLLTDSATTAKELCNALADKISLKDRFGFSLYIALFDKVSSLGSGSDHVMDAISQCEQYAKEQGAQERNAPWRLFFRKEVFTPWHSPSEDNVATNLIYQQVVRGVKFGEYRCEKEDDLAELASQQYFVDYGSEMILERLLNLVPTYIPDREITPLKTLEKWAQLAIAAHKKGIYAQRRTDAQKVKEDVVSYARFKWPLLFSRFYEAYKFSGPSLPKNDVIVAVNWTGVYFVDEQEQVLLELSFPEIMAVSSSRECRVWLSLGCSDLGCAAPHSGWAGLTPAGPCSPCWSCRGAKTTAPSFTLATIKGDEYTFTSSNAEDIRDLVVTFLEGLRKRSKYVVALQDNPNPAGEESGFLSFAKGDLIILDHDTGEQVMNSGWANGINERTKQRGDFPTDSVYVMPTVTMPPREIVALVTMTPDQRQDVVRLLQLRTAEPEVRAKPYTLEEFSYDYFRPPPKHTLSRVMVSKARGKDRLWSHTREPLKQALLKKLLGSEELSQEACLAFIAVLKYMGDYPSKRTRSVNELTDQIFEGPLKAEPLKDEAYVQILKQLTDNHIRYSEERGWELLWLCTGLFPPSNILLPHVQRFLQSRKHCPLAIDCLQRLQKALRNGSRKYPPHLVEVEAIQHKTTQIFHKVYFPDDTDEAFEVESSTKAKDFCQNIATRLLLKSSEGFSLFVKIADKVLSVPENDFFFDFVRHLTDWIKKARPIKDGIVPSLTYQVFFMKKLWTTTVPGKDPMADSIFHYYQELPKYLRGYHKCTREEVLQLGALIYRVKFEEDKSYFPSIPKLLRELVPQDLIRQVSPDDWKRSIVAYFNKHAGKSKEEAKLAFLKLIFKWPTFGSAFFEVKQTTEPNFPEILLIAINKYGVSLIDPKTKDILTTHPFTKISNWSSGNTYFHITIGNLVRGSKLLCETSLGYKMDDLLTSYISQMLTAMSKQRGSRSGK

With `Nc1ncnc2c1ncn2[C@@H]1O[C@H](COP(=O)(O)OP(=O)(O)OP(=O)(O)O)[C@@H](O)[C@H]1O` [ATP] as the compound, how does the Kd read?
Its Kd is 681.2 ± 5.63 µM.
